Test results from patent publication US10011596B2, “2-amino-3-fluoro-3-(fluoromethyl)-6-methyl-6-phenyl-3,4,5,6-tetrahydropyridines as BACE1 inhibitors” (H. Lundbeck A/S, priority 2015, dated 2018).

Key:
[1] = tested on: P-gp (MDR1); test: MDCK-MDR1 assay (permeability, efflux ratio); type: in vitro ADME; settings: dog
Procedure: The permeability of the test compounds was assessed in MDCK-MDR1 cells that were cultured to confluency (4-6 days) in a 96 transwell plate. Test compounds were diluted with the transport buffer (HBSS+1% BSA) to a concentration of 0.5 μM and applied to the apical or basolateral side of the cell monolayer. Permeation of the test compounds from A to B direction or B to A direction was determined in triplicate over a 60-minute incubation time at 37° C. and 5% CO2 with a relative humidity of 95%. Test compounds were quantified by LC-MS/MS analysis based on the peaks area ratios of analyte/IS in both the receiver and donor wells of the transwell plate.
The apparent permeability coefficient Papp (cm/s) was calculated using the equation: Papp=(dCr/dt)×Vr/(A×C0)
Where dCr/dt is the cumulative concentration of compound in the receiver chamber as a function of time (μM/s); Vr is the solution volume in the receiver chamber (0.05 mL on the apical side; 0.25 mL on the basolateral side); A is the surface area for the transport, i.e. 0.0804 cm^2 for the area of the monolayer; C0 is the initial concentration in the donor chamber (μM).

[2] = molecular target: T1, human BACE1 (Homo sapiens, UniProt P56817); test: BACE1 binding assay (SPA-based, radioligand displacement); design: biotin (biotinylated form); made in house; host or cells: Freestyle HEK293 cells; settings: pH 4.5, 10 nM radioligand, 6 nM human BACE1, read-out: BACE1 binding affinity
T1 sequence (P56817 46-501): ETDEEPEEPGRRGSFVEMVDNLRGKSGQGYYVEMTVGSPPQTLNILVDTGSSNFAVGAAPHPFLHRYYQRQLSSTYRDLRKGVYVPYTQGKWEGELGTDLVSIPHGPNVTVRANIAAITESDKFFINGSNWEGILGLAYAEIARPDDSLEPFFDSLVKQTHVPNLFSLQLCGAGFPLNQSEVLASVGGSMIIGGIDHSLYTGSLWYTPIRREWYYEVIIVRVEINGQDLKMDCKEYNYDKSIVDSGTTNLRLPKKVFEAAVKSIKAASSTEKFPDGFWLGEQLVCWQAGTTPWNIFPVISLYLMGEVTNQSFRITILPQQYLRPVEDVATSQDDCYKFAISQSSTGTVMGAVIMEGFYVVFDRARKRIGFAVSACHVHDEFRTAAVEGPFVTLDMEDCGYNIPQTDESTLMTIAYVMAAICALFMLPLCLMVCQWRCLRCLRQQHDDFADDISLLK
Procedure: The binding assay was performed as SPA-based assay using a biotinylated form of human BACE1 recombinantly expressed and subsequently purified from Freestyle HEK293 cells. The binding assay was run in a 50 mM sodium acetate buffer, pH 4.5 containing 50 mM NaCl and 0.03% Tween-20 in white clear bottom 384 plates (Corning #3653). 10 nM (final concentration) radioligand ([^3H]-N-((1S,2R)-1-benzyl-3-cyclopropylamino-2-hydroxy-propyl)-5-(methanesulfonyl-methyl-amino)-N-((R)-1-phenyl-ethyl)-isophthalamide) (TRQ11569 purchased from GE Healthcare) was mixed with test compound at a given concentration, 6 nM (final concentration) human BACE1 and 25 μg Streptavidin coated PVT core SPA beads (RPNQ0007, GE Healthcare Life Sciences) in a total volume of 40 μl. Several concentrations of each test compound were tested in the assay for IC50 determination. The plates were incubated for one hour at room temperature and counted in a WaIlac Trilux counter. […] For each test compound, a IC50 value (the concentration mediating 50% inhibition of the specific binding of the radioligand) was determined from concentration-response curve and used to calculate the Ki from the equation Ki=IC50/(1+L/Kd), where L and Kd are the final concentration of the radioligand used in the assay and the dissociation constant of the radioligand, respectively. The Kd of the radioligand was determined from saturation binding experiments.

[3] = molecular target: T1, human BACE1; test: BACE1 efficacy assay (FRET-based, commercial BACE1 kit); type: biochemical; design: purchased Life Technologies P2985; settings: test compound at 10 μM
Procedure: The efficacy assay was performed as a FRET-based assay using a commercially available BACE1 kit (Life Technologies, P2985). 2 μl test compound at 10 μM (final concentration) and 15 μl BACE1 enzyme from the kit (final concentration 3 nM) were preincubated for 15 minutes at room temperature before addition of 15 μl of substrate from the kit (250 nM final concentration) and incubated for additional 90 minutes at room temperature. The assay plate was subsequently read in a Pherastar (Ex540/Em590).

efflux ratio at 60 min, 0.5 µM [1] | Ki [2] | inhibition at 10 µM [3] | Structure (SMILES)
2.36 | 62 nM |  | Cc1csc(C(=O)Nc2ccc(F)c([C@]3(C)CC[C@@](F)(CF)C(N)=N3)c2)n1 [Compound 8, N-(3-((2S,5S)-6-Amino-5-fluoro-5-(fluoromethyl)-2-methyl-2,3,4,5-tetrahydropyridin-2-yl)-4-fluorophenyl)-4-methylthiazole-2-carboxamide]
8.61 | 26 nM | 103% | C[C@@]1(c2cc(NC(=O)c3coc(C(F)F)n3)ccc2F)CC[C@@](F)(CF)C(N)=N1 [Compound 9]
4.87 | 10 nM | 105% | Cc1cc(C#N)cnc1C(=O)Nc1ccc(F)c([C@]2(C)CC[C@@](F)(CF)C(N)=N2)c1 [Compound 3, N-(3-((2S,5S)-6-Amino-5-fluoro-5-(fluoromethyl)-2-methyl-2,3,4,5-tetrahydropyridin-2-yl)-4-fluorophenyl)-5-cyano-3-methylpicolinamide]
1.17 | 52 nM | 104% | C[C@@]1(c2cc(NC(=O)c3ccc(F)cn3)cc(F)c2F)CC[C@@](F)(CF)C(N)=N1 [Compound 15, N-[3-[(2S,5S)-6-Amino-5-fluoro-5-(fluoromethyl)-2-methyl-2,3,4,5-tetrahydropyridin-2-yl]-4,5-difluoro-phenyl]-5-fluoro-pyridine-2-carboxamide]
0.77 | 230 nM | 102% | COc1cnc(C(=O)Nc2cc(F)c(F)c([C@]3(C)CC[C@](F)(CF)C(N)=N3)c2)cn1 [Compound 20, N-[3-[(2S,5R)-6-Amino-5-fluoro-5-(fluoromethyl)-2-methyl-2,3,4,5-tetrahydropyridin-2-yl]-4,5-difluoro-phenyl]-5-methoxy-pyrazine-2-carboxamide]
 | 67 nM | 104% | Cn1cc(Br)nc1C(=O)Nc1ccc(F)c([C@]2(C)CC[C@@](F)(CF)C(N)=N2)c1 [Compound 7, N-(3-((2S,5S)-6-Amino-5-fluoro-5-(fluoromethyl)-2-methyl-2,3,4,5-tetrahydropyridin-2-yl)-4-fluorophenyl)-4-bromo-1-methyl-1H-imidazole-2-carboxamide]
1.34 | 11 nM | 102% | C[C@@]1(c2cc(NC(=O)c3ccc(Cl)cn3)ccc2F)CC[C@@](F)(CF)C(N)=N1 [Compound 4, N-(3-((2S,5S)-6-Amino-5-fluoro-5-(fluoromethyl)-2-methyl-2,3,4,5-tetrahydropyridin-2-yl)-4-fluorophenyl)-5-chloropicolinamide]
1.06 | 17 nM |  | COc1cnc(C(=O)Nc2ccc(F)c([C@]3(CF)CC[C@@](F)(CF)C(N)=N3)c2)cn1 [Compound 23, N-[3-[(2S,5S)-6-amino-5-fluoro-2,5-bis(fluoromethyl)-2,3,4,5-tetrahydropyridin-2-yl]-4-fluoro-phenyl]-5-methoxy-pyrazine-2-carboxamide]
0.89 | 22 nM | 106% | COc1ccc(C(=O)Nc2ccc(F)c([C@]3(C)CC[C@@](F)(CF)C(N)=N3)c2)nc1 [Compound 1, N-(3-((2S,5S)-6-Amino-5-fluoro-5-(fluoromethyl)-2-methyl-2,3,4,5-tetrahydropyridin-2-yl)-4-fluorophenyl)-5-methoxypicolinamide]
 |  | 104% | COc1ccc(C(=O)Nc2cc(F)c(F)c([C@]3(C)CC[C@@](F)(CF)C(N)=N3)c2)nc1 [Compound 16, N-[3-[(2S,5S)-6-Amino-5-fluoro-5-(fluoromethyl)-2-methyl-2,3,4,5-tetrahydropyridin-2-yl]-4,5-difluoro-phenyl]-5-methoxy-pyridine-2-carboxamide]
 | 140 nM | 103% | C[C@@]1(c2cc(NC(=O)c3ccc(Cl)cc3)ccc2F)CC[C@@](F)(CF)C(N)=N1 [Compound 12, N-(3-((2S,5S)-6-Amino-5-fluoro-5-(fluoromethyl)-2-methyl-2,3,4,5-tetrahydropyridin-2-yl)-4-fluorophenyl)-4-chlorobenzamide]
2.32 | 20 nM | 104% | [2H]C([2H])([2H])Oc1ccc(C(=O)Nc2ccc(F)c([C@]3(C)CC[C@@](F)(CF)C(N)=N3)c2)nc1 [Compound 2, N-(3-((2S,5S)-6-Amino-5-fluoro-5-(fluoromethyl)-2-methyl-2,3,4,5-tetrahydropyridin-2-yl)-4-fluorophenyl)-5-(methoxy-d3)picolinamide]
7 | 46 nM | 106% | Cc1nc(C(=O)Nc2ccc(F)c([C@]3(C)CC[C@@](F)(CF)C(N)=N3)c2)co1 [Compound 6]
10.6 | 22 nM | 103% | C[C@@]1(c2cc(NC(=O)c3ccn(C(F)F)n3)ccc2F)CC[C@@](F)(CF)C(N)=N1 [Compound 10]
 |  | 104% | COc1ccc(C(=O)Nc2cc(F)c(F)c([C@]3(C)CC[C@](F)(CF)C(N)=N3)c2)nc1 [Compound 19, N-[3-[(2S,5R)-6-Amino-5-fluoro-5-(fluoromethyl)-2-methyl-2,3,4,5-tetrahydropyridin-2-yl]-4,5-difluoro-phenyl]-5-methoxy-pyridine-2-carboxamide]
1.06 | 130 nM | 103% | COc1ccc(C(=O)Nc2ccc(F)c([C@]3(C)CC[C@](F)(CF)C(N)=N3)c2)nc1 [Compound 14, N-(3-((2S,5R)-6-Amino-5-fluoro-5-(fluoromethyl)-2-methyl-2,3,4,5-tetrahydropyridin-2-yl)-4-fluorophenyl)-5-methoxypicolinamide]
0.92 | 160 nM |  | COc1cnc(C(=O)Nc2ccc(F)c([C@]3(CF)CC[C@](F)(CF)C(N)=N3)c2)cn1 [Compound 26, N-[3-[(2S,5R)-6-amino-5-fluoro-2,5-bis(fluoromethyl)-2,3,4,5-tetrahydropyridin-2-yl]-4-fluoro-phenyl]-5-methoxy-pyrazine-2-carboxamide]
 | 300 nM | 103% | C[C@@]1(c2cc(NC(=O)c3ccc(F)cn3)cc(F)c2F)CC[C@](F)(CF)C(N)=N1 [Compound 18, N-[3-[(2S,5R)-6-Amino-5-fluoro-5-(fluoromethyl)-2-methyl-2,3,4,5-tetrahydropyridin-2-yl]-4,5-difluoro-phenyl]-5-fluoro-pyridine-2-carboxamide]
0.97 | 67 nM |  | NC1=N[C@](CF)(c2cc(NC(=O)c3ccc(F)cn3)ccc2F)CC[C@@]1(F)CF [Compound 21, N-[3-[(2S,5S)-6-amino-5-fluoro-2,5-bis(fluoromethyl)-2,3,4,5-tetrahydropyridin-2-yl]-4-fluoro-phenyl]-5-fluoro-pyridine-2-carboxamide]
0.88 | 180 nM |  | NC1=N[C@](CF)(c2cc(NC(=O)c3ccc(F)cn3)ccc2F)CC[C@]1(F)CF [Compound 24, N-[3-[(2S,5R)-6-amino-5-fluoro-2,5-bis(fluoromethyl)-2,3,4,5-tetrahydropyridin-2-yl]-4-fluoro-phenyl]-5-fluoro-pyridine-2-carboxamide]
